Activity calls are given as the source filed them. The rule behind the calls is not given here.
What was measured:
[1] = target: DNA repair protein complementing XP-A cells (Homo sapiens, UniProt P23025); test: Inhibition of full length human XPA expressed in Sf9 cells assessed as reduction in interaction of XPA with 32P-labeled cisplatin-modified dsDNA by EMSA
Salmonidae = test: Binding affinity to salmon sperm DNA assessed as DNA intercalation by SYBR-green dye based fluorescence assay
Homo sapiens = species: Homo sapiens; conditions: 10 uM
Description: Inhibition of RPA (unknown origin) at 10 uM by EMSA assay

Sequence of DNA repair protein complementing XP-A cells (P23025 whole entry): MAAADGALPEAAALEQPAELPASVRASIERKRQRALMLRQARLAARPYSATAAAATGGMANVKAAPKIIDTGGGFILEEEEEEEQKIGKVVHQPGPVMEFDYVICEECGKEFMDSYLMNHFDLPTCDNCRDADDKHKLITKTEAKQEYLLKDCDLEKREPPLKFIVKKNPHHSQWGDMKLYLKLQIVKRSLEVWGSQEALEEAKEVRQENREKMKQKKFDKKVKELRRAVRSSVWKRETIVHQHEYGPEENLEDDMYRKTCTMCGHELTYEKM

SMILES	IC50 [1] [µM]	Activity (Salmonidae)	inhibition (Homo sapiens)
CC1=NN(c2cccc(C(=O)O)c2)C(=O)/C1=C\c1ccc(-c2ccc(Cl)c(C(=O)NCC3CC3)c2)o1	–	inactive	–
CC1=NN(c2ccc(Cl)c(C(=O)O)c2)C(=O)/C1=C\c1ccc(-c2ccc(Cl)c(C(=O)OCc3ccccc3)c2)o1	–	Active	inactive
CC1=NN(c2ccc(Cl)c(C(=O)O)c2)C(=O)/C1=C\c1ccc(-c2ccc(Cl)c(C(=O)OCc3ccccc3Cl)c2)o1	–	Active	inactive
CC1=NN(c2cccc(C(=O)NCC3CC3)c2)C(=O)/C1=C\c1ccc(-c2ccc(Cl)c(C(=O)NCC3CC3)c2)o1	> 50	–	–

More lines, now with the values ahead:

IC50 [1] [µM]	Activity (Salmonidae)	inhibition (Homo sapiens)	SMILES
> 25	–	–	CCOC(=O)c1cccc(N2N=C(C)/C(=C/c3ccc(-c4ccc(Cl)c(C(=O)NCc5ccc(F)cc5)c4)o3)C2=O)c1
> 50	–	–	CC1=NN(c2cccc(C(=O)O)c2)C(=O)/C1=C\c1ccc(-c2ccc(C(=O)NCC3CC3)cc2)o1
> 50	–	–	CC1=NN(c2cccc(C(=O)O)c2)C(=O)/C1=C\c1ccc(-c2ccc(C(=O)NCc3ccc(F)cc3)cc2)o1
–	inactive	inactive	CC1=NN(c2ccc(C(=O)O)cc2)C(=O)/C1=C\c1ccc(-c2ccc(Cl)c(C(=O)NCC3CC3)c2)o1
–	inactive	–	CC1=NN(c2ccc(C(=O)O)cc2)C(=O)/C1=C\c1ccc(-c2ccc(C(=O)NCc3ccc(F)cc3)cc2)o1
–	inactive	inactive	CC1=NN(c2ccc(C(=O)O)cc2)C(=O)/C1=C\c1ccc(-c2ccc(Cl)c(C(=O)NCc3ccc(F)cc3)c2)o1
–	inactive	–	CC1=NN(c2cccc(C(=O)O)c2)C(=O)/C1=C\c1ccc(-c2ccc(Cl)c(C(=O)NCc3ccc(F)cc3)c2)o1

— ChEMBL document CHEMBL4017531, “Design and Structure-Guided Development of Novel Inhibitors of the Xeroderma Pigmentosum Group A (XPA) Protein-DNA Interaction” (J Med Chem, 2017)
